Test results as given in US7455861B2, “Angelicae sinensis extracts useful for treatment of cancers” (priority 2004, dated 2008).
Like-named read-outs stand apart in the source and are kept apart here.

How the values were obtained:
[1] = system: DBTRG-05MG; test: Cell cycle analysis (PI staining, FACScan) in GBM cells; format: cell-based, human; conditions: 400 μM BP
Experimental: Brain tumor cell lines DBTRG-05MG and G5T/VGH were cultured in the growth medium with a diluent. For each test and control, DMSO was added, and the content is less than 0.02% (v/v). For the AS-C and BP treatment, 70 μg/ml of AS-C and 400 μM of BP were added, respectively. All were cultured for 48 hours. The analysis of cell cycle distribution was performed by DNA staining with propidium iodide (PI). Briefly, 2×10^6 adherent cells were detached by trypsinization. The detached cells and the floating dead cells were centrifuged and washed twice with 10 ml of cold 1×PBS (Life Technologies, Inc.). Supernatant was aspirated, cells were re-suspended in 0.8 ml of 1×PBS, and then 200 μl of PI solution (50 μg/ml PI+0.05 mg/ml RNase A; Sigma Chemical Co.) was added, and the cells were refrigerated at 4° C. overnight. The cells were incubated while protected from light at room temperature for at least 2 h before DNA analysis. After staining, DNA was detected and quantified on 20,000 total cells using a FACScan (Becton Dickinson Immunocytometry Systems, San Jose, Calif., USA) and CellQuest analysis software. The G0/G1 phases were gated in M1 (×2); G2/M phases were gated in M2 (×2); the total cells were gated in M3; S phase was M3−(M1(×2)+M2(×2)); Sub G1 phase (apoptosis cells) was gated in M4.

[2] = system: MCF-7; test: Cytotoxicity (IC50) on MCF-7; format: cell-based; conditions: Homo sapiens, MCF7
Experimental: (§1) Human tumor cell lines (MCF-7, CL1-5, HT-29, Caco-2), human umbilical vascular endothelial cells (HUVEC), and human dermal fibroblasts (HDF) were tested for sensitivity on Angelicae sinensis extracts, ligustilide, n-butylidenephthalide and its derivatives in vitro. The DBTRG-05MG, BCM, HL-60 and J5 cells were grown in RPMI-1640 medium containing 10% fetal calf serum and 100 ng/ml penicillin and […] streptomycin at 37° C. in a humidified atmosphere with 5% CO2. The G5T/VGH, RG2, Ni 8, SVEC and Balb/3T3 cells were cultured in DMEM with 10% fetal calf serum and 100 ng/ml penicillin and […] streptomycin at 37° C. in 5% CO2. Mycoplasma infection of the culture cells was excluded by PCR screening methods before each experiment.
(§2) The effects on cell viability after the treatments with different concentrations of the Angelicae sinensis extracts or the active components purified therefrom were evaluated by modified MTT assay in triplicate. Briefly, the cells (5×10^3) were incubated into 96-well plates containing 100 μl of a growth medium. The cells were permitted to adhere for 24 hours, then treated with 100 μl of the herbal extracts or the active components dissolved in the medium. The control contained DMSO of <0.02% (v/v). […] Absorbance at 550 nm of the solutions was measured with MRX Microtiter Plate Luminometer (DYNEX, USA). The absorbance of untreated cells was considered as 100%. […]

[3] = system: DBTRG-05MG cells; test: s.c. xenograft human GBM tumors in nude mice, BP; format: in vivo, Foxn1 nude mice
Experimental: The RG2 cells (rat GBM) and DBTRG-05MG cells (human GBM) were used in animal experiments to monitor the anti-tumor activities of AS-C and BP. Male F344 rat (230-260 g) and male Foxn1 nu/nu mice (10-12 weeks) were obtained from National Laboratory Animal Center (Taipei, Taiwan). All procedures were performed in compliance with the Standard Operation Procedures of the Laboratory Animal Center of Tzu Chi University (Hualien, Taiwan). Animals were kept under pathogen-free conditions and fed a standard laboratory diet. The DBTRG-05MG cells (human GBM) and RG2 cells (rat GBM) were prepared for nude mice xenografts and rat allogenics, respectively.
Animals (Foxn1 nude mice) in six groups (6/group) were implanted subcutaneously (s.c.) with 1×10^6 DBTRG-05MG cells, and randomly treated with BP s.c. (70, 150, 300, 500, 800 mg/kg/day) or vehicle s.c. at a site remote (>2 cm) from the incubated tumor after tumor cell implantation, at day 4, 5, 6, 7 and 8 for all five dosages. Tumor size was measured every 2 days and tumor volume was calculated. Animals were sacrificed when tumor exceeded 1000 mm^3. Tumor growth was monitored for 3 months for those not sacrificed. Survival rate was followed for up to 200 days.

[4] = system: CL1-5; test: Cytotoxicity (IC50) on CL1-5; format: cell-based; conditions: Homo sapiens
Experimental: as §1, §2

[5] = system: MMP-2; test: RT-PCR of MMP-2 in HUVEC; format: cell-based, human

Compound: CCCC=C1OC(=O)c2ccccc21 [BP, n-Butylidenephthalide]
- cell cycle accumulation at G0/G1 phase [1]: > 90%
- IC50 ([2]; Table 1, value in parentheses): > 106 µM
- IC50 ([2]; cancer cells, Table 1): > 20 µg/mL
- tumor growth compared with untreated group ([3]; BP s.c. 70-800 mg/kg/day day 4-8, dose dependent, p<0.005 for 300 mg/kg): significant suppressions of tumor growth
- survival period of nude mice ([3]; BP s.c. 70-800 mg/kg/day, followed for up to 200 days): up to 200 days
- IC50 ([4]; Table 2): > 100 µg/mL
- IC50 ([4]; Table 2, value in parentheses): > 532 µM
- Inhibition RT-PCR MMP-2 [5]: 159.4 µg/mL
- Inhibition RT-PCR MMP-2 ([5]; value in parentheses): (847.9 μM)
